# Measured values taken from US20240374598A1, “INHIBITORS OF HUMAN IMMUNODEFICIENCY VIRUS REPLICATION” (ViiV HEALTHCARE UK (NO.5) LIMITED, priority 2018, published 2024).
# Tests used:
# [1] = system: recombinant NL4-3 virus (nef section replaced with Renilla luciferase gene) in MT-2 cells; experiment: HIV cell culture assay (antiviral activity, luciferase readout); format: cell-based; conditions: NL43, MT-2 cells infected for 4-5 days with recombinant NL4-3 Renilla luciferase virus
# Protocol: HIV cell culture assay—MT-2 cells, 293T cells and the proviral DNA clone of NL4-3 virus were obtained from the NIH AIDS Research and Reference Reagent Program. MT-2 cells were propagated in RPMI 1640 media supplemented with 10% heat inactivated fetal bovine serum (FBS), […]. The 293T cells were propagated in DMEM media supplemented with 10% heat inactivated FBS, […]. A recombinant NL4-3 proviral clone, in which a section of the nef gene was replaced with the Renilla luciferase gene, was used to make the reference virus used in these studies. The recombinant virus was prepared through transfection of the recombinant NL4-3 proviral clone into 293T cells using Transit-293 Transfection Reagent from Mirus Bio LLC (Madison, WI). Supernatent was harvested after 2-3 days and the amount of virus present was titered in MT-2 cells using luciferase enzyme activity as a marker by measuring luciferase enzyme activity. Luciferase was quantitated using the EnduRen Live Cell Substrate from Promega (Madison, WI). Antiviral activities of compounds toward the recombinant virus were quantified by measuring luciferase activity in MT-2 cells infected for 4-5 days with the recombinant virus in the presence of serial dilutions of the compound.
# The 50% effective concentration (EC50) was calculated by using the exponential form of the median effect equation where (Fa)=1/[1+(ED50/drug conc.)m] (Johnson VA, Byington RT. Infectivity Assay. In Techniques in HIV Research. ed. Aldovini A, Walker BD. 71-76. New York: Stockton Press. 1990). The 50% inhibitory concentration (EC50) was calculated by using the exponential form of the median effect equation where percent inhibition=1/[1+(EC50/drug concentration)m], where m is a parameter that reflects the slope of the concentration-response curve.
# [2] = Compound cytotoxicity, XTT-based colorimetric assay; format: cell-based; conditions: human; uninfected MT2 cells, day 4, XTT assay
# Protocol: Compound cytotoxicity and the corresponding CC50 values were determined using the same protocol as described in the antiviral assay except that uninfected cells were used. Cytotoxicity was assessed on day 4 in uninfected MT2 cells by using a XTT (2,3-bis[2-Methoxy-4-nitro-5-sulfophenyl]-2H-tetrazolium-5-carboxyanilide inner salt)-based colorimetric assay (Sigma-Aldrich, St Louis, Mo).
Structure (SMILES),EC50 [1],CC50 at 4 day [2]
"CC(C)Oc1ccc2c(=O)n(-c3ccc(Cl)c4c(NS(C)(=O)=O)nn(C)c34)c([C@H](Cc3cc(F)cc(F)c3)NC(=O)Cn3nc(C(F)F)c4c3C(F)(F)[C@@H]3C[C@H]43)nc2c1 [Example 10, N—((S)-1-(3-(4-chloro-1-methyl-3-(methylsulfonamido)-1H-indazol-7-yl)-7-isopropoxy-4-oxo-3,4-dihydroquinazolin-2-yl)-2-(3,5-difluorophenyl)ethyl)-2-((3bS,4aR)-3-(difluoromethyl)-5,5-difluoro-3b,4,4a,5-tetrahydro-1H-cyclopropa[3,4]cyclopenta[1,2-c]pyrazol-1-yl)acetamide]",0.107 nM,> 1000 nM
"CCCCOc1ccc2c(=O)n(-c3ccc(Cl)c4c(NS(C)(=O)=O)nn(C)c34)c([C@H](Cc3cc(F)cc(F)c3)NC(=O)Cn3nc(C(F)F)c4c3C(F)(F)[C@@H]3C[C@H]43)nc2c1 [Example 11, N—((S)-1-(7-butoxy-3-(4-chloro-1-methyl-3-(methylsulfonamido)-1H-indazol-7-yl)-4-oxo-3,4-dihydroquinazolin-2-yl)-2-(3,5-difluorophenyl)ethyl)-2-((3bS,4aR)-3-(difluoromethyl)-5,5-difluoro-3b,4,4a,5-tetrahydro-1H-cyclopropa[3,4]cyclopenta[1,2-c]pyrazol-1-yl)acetamide]",0.208 nM,> 1000 nM
"CC(C)COc1ccc2c(=O)n(-c3ccc(Cl)c4c(NS(C)(=O)=O)nn(C)c34)c([C@H](Cc3cc(F)cc(F)c3)NC(=O)Cn3nc(C(F)F)c4c3C(F)(F)[C@@H]3C[C@H]43)nc2c1 [Example 12, N—((S)-1-(3-(4-chloro-1-methyl-3-(methylsulfonamido)-1H-indazol-7-yl)-7-isobutoxy-4-oxo-3,4-dihydroquinazolin-2-yl)-2-(3,5-difluorophenyl)ethyl)-2-((3bS,4aR)-3-(difluoromethyl)-5,5-difluoro-3b,4,4a,5-tetrahydro-1H-cyclopropa[3,4]cyclopenta[1,2-c]pyrazol-1-yl)acetamide]",0.109 nM,> 1000 nM
"CC(C)[C@H](C)Oc1ccc2c(=O)n(-c3ccc(Cl)c4c(NS(C)(=O)=O)nn(C)c34)c([C@H](Cc3cc(F)cc(F)c3)NC(=O)Cn3nc(C(F)F)c4c3C(F)(F)[C@@H]3C[C@H]43)nc2c1 [Example 13, N—((S)-1-(3-(4-chloro-1-methyl-3-(methylsulfonamido)-1H-indazol-7-yl)-7-(((S)-3-methylbutan-2-yl)oxy)-4-oxo-3,4-dihydroquinazolin-2-yl)-2-(3,5-difluorophenyl)ethyl)-2-((3bS,4aR)-3-(difluoromethyl)-5,5-difluoro-3b,4,4a,5-tetrahydro-1H-cyclopropa[3,4]cyclopenta[1,2-c]pyrazol-1-yl)acetamide]",0.239 nM,> 1000 nM
"Cc1ccc2c(=O)n(-c3ccc(Cl)c4c(NS(C)(=O)=O)nn(C)c34)c([C@H](Cc3cc(F)cc(F)c3)NC(=O)Cn3nc(C(F)F)c4c3C(F)(F)[C@@H]3C[C@H]43)nc2c1 [Example 15, N—((S)-1-(3-(4-chloro-1-methyl-3-(methylsulfonamido)-1H-indazol-7-yl)-7-methyl-4-oxo-3,4-dihydroquinazolin-2-yl)-2-(3,5-difluorophenyl)ethyl)-2-((3bS,4aR)-3-(difluoromethyl)-5,5-difluoro-3b,4,4a,5-tetrahydro-1H-cyclopropa[3,4]cyclopenta[1,2-c]pyrazol-1-yl)acetamide]",0.071 nM,> 1000 nM
"CCc1ccc2c(=O)n(-c3ccc(Cl)c4c(NS(C)(=O)=O)nn(C)c34)c([C@H](Cc3cc(F)cc(F)c3)NC(=O)Cn3nc(C(F)F)c4c3C(F)(F)[C@@H]3C[C@H]43)nc2c1 [Example 16, N—((S)-1-(3-(4-chloro-1-methyl-3-(methylsulfonamido)-1H-indazol-7-yl)-7-ethyl-4-oxo-3,4-dihydroquinazolin-2-yl)-2-(3,5-difluorophenyl)ethyl)-2-((3bS,4aR)-3-(difluoromethyl)-5,5-difluoro-3b,4,4a,5-tetrahydro-1H-cyclopropa[3,4]cyclopenta[1,2-c]pyrazol-1-yl)acetamide]",0.084 nM,> 1000 nM
"CC(F)(F)c1ccc2c(=O)n(-c3ccc(Cl)c4c(NS(C)(=O)=O)nn(CC(F)F)c34)c([C@H](Cc3cc(F)cc(F)c3)NC(=O)Cn3nc(C(F)F)c4c3C(F)(F)[C@@H]3C[C@H]43)nc2c1 [Example 17, N—((S)-1-(3-(4-chloro-1-(2,2-difluoroethyl)-3-(methylsulfonamido)-1H-indazol-7-yl)-7-(1,1-difluoroethyl)-4-oxo-3,4-dihydroquinazolin-2-yl)-2-(3,5-difluorophenyl)ethyl)-2-((3bS,4aR)-3-(difluoromethyl)-5,5-difluoro-3b,4,4a,5-tetrahydro-1H-cyclopropa[3,4]cyclopenta[1,2-c]pyrazol-1-yl)acetamide]",0.083 nM,> 1000 nM
"CC(F)(F)c1ccc2c(=O)n(-c3ccc(Cl)c4c(NS(=O)(=O)C5CC5)nn(CC(F)F)c34)c([C@H](Cc3cc(F)cc(F)c3)NC(=O)Cn3nc(C(F)F)c4c3C(F)(F)[C@@H]3C[C@H]43)nc2c1 [Example 18, N—((S)-1-(3-(4-chloro-3-(cyclopropanesulfonamido)-1-(2,2-difluoroethyl)-1H-indazol-7-yl)-7-(1,1-difluoroethyl)-4-oxo-3,4-dihydroquinazolin-2-yl)-2-(3,5-difluorophenyl)ethyl)-2-((3bS,4aR)-3-(difluoromethyl)-5,5-difluoro-3b,4,4a,5-tetrahydro-1H-cyclopropa[3,4]cyclopenta[1,2-c]pyrazol-1-yl)acetamide]",0.069 nM,> 1000 nM
"CCCc1ccc2c(=O)n(-c3ccc(Cl)c4c(NS(C)(=O)=O)nn(C)c34)c([C@H](Cc3cc(F)cc(F)c3)NC(=O)Cn3nc(C(F)F)c4c3C(F)(F)[C@@H]3C[C@H]43)nc2c1 [Example 19, N—((S)-1-(3-(4-chloro-1-methyl-3-(methylsulfonamido)-1H-indazol-7-yl)-4-oxo-7-propyl-3,4-dihydroquinazolin-2-yl)-2-(3,5-difluorophenyl)ethyl)-2-((3bS,4aR)-3-(difluoromethyl)-5,5-difluoro-3b,4,4a,5-tetrahydro-1H-cyclopropa[3,4]cyclopenta[1,2-c]pyrazol-1-yl)acetamide]",0.063 nM,> 1000 nM
"CCC(F)(F)c1ccc2c(=O)n(-c3ccc(Cl)c4c(NS(C)(=O)=O)nn(C)c34)c([C@H](Cc3cc(F)cc(F)c3)NC(=O)Cn3nc(C(F)F)c4c3C(F)(F)[C@@H]3C[C@H]43)nc2c1 [Example 20, N—((S)-1-(3-(4-chloro-1-methyl-3-(methylsulfonamido)-1H-indazol-7-yl)-7-(1,1-difluoropropyl)-4-oxo-3,4-dihydroquinazolin-2-yl)-2-(3,5-difluorophenyl)ethyl)-2-((3bS,4aR)-3-(difluoromethyl)-5,5-difluoro-3b,4,4a,5-tetrahydro-1H-cyclopropa[3,4]cyclopenta[1,2-c]pyrazol-1-yl)acetamide]",0.122 nM,> 1000 nM
"Cn1nc(NS(C)(=O)=O)c2c(Cl)ccc(-n3c([C@H](Cc4cc(F)cc(F)c4)NC(=O)Cn4nc(C(F)F)c5c4C(F)(F)[C@@H]4C[C@H]54)nc4cc(CCC(F)(F)F)ccc4c3=O)c21 [Example 21, N—((S)-1-(3-(4-chloro-1-methyl-3-(methylsulfonamido)-1H-indazol-7-yl)-4-oxo-7-(3,3,3-trifluoropropyl)-3,4-dihydroquinazolin-2-yl)-2-(3,5-difluorophenyl)ethyl)-2-((3bS,4aR)-3-(difluoromethyl)-5,5-difluoro-3b,4,4a,5-tetrahydro-1H-cyclopropa[3,4]cyclopenta[1,2-c]pyrazol-1-yl)acetamide]",0.122 nM,> 1000 nM
"Cn1nc(NS(C)(=O)=O)c2c(CCC(F)(F)F)ccc(-n3c([C@H](Cc4cc(F)cc(F)c4)NC(=O)Cn4nc(C(F)F)c5c4C(F)(F)[C@@H]4C[C@H]54)nc4cc(CCC(F)(F)F)ccc4c3=O)c21 [Example 22, 2-((3bS,4aR)-3-(difluoromethyl)-5,5-difluoro-3b,4,4a,5-tetrahydro-1H-cyclopropa[3,4]cyclopenta[1,2-c]pyrazol-1-yl)-N—((S)-2-(3,5-difluorophenyl)-1-(3-(1-methyl-3-(methylsulfonamido)-4-(3,3,3-trifluoropropyl)-1H-indazol-7-yl)-4-oxo-7-(3,3,3-trifluoropropyl)-3,4-dihydroquinazolin-2-yl)ethyl)acetamide]",0.573 nM,> 1000 nM
